Key:
[1] = system: lysosomes of ApoE4+/+ astrocytes; test: lysosome size (Lysotracker, confocal) in iPSC-derived astrocytes; type: cell-based, human; conditions: control 36.5 μm^2
Description: Mouse Neuronal and human iPSC culture. Primary cortical neurons were cultured (Zhu L et al., Proc Natl Acad Sci USA 2015, and Zhu L et al., J Biol Chem 2013) before being fixed and stained for confocal microscopy analysis (Zeiss LSM) (Berg I et al., Nat Protoc 2010). In some conditions, bovine serum albumin (BSA) or receptor-associated protein (RAP) was included in the cultured media (N=3/group). Alternatively, cultured neurons were transfected with adeno-associated virus 2 (AAV2)-containing miR-195-5p or miR-374 or scramble controls for 5 days before subjected to analysis. The ApoE4^+/+ and ApoE3^+/+ iPSCs were differentiated into neural progenitor cells (NPCs) by dual SMAD inhibition followed by neural rosette selection and forebrain-specific patterning by 20 ng/ml FGF2 exposure (Bowles K R et al., PloS one 2019, and Tcw J et al., Stem cell reports 2017). These NPCs were purified by MACS for CD271^−/CD133^+ (Bowles K R et al., PloS one 2019) and differentiated to cortical neurons (Bardy C et al., Proc Natl Acad Sci USA 2015, and Paquet D et al., Nature 2016) and a homogeneous population of astrocytes (Tcw J et al., Stem cell reports 2017, and Shaltouki A et al., Stem Cells 2013) before subjected to viral transfection and confocal microscopy analysis. […]

[2] = system: microglia-specific gene profiles, E4FAD mouse brain; test: scRNA-seq of EFAD mouse brains with miR-195-5p over-expression; type: in vivo; conditions: Mic.C0 and Mic.C2 microglial sub-clusters; N=4 pooled mice/condition
Description: Changes in microglia-specific gene profiles with miR-195-5p over-expression in E4FAD mouse brain. scRNA-seq analysis of EFAD mouse brains with miR-195-5p over-expression was performed (FIG. 15; N=4 pooled mice/condition). Single cell suspensions were prepared and processed with the 10× Genomics Chromium platform. After quality control (QC), the gene-level UMIs data were normalized by a regularized negative binomial regression analysis (Hafemeister, C. & Satija, R. Genome Biology 20, 296, (2019)). Genes were selected that were detected in more than one cell and cells with sequencing reads in 200˜4,000 genes and mitochondrial read rate of less than 50%. […] The significant principal components as determined by a JackStraw permutation procedure were selected for cell clustering using Seurat's graph-based clustering approach (Butler, A., et al. Nature Biotechnology 36, 411, (2018)). […] After removing predicted doublets from the clusters, the cluster marker genes were observed and the expression patterns of known gene markers were analyzed to annotate clusters into major cell-types: excitatory neurons (Ex; marked by NRGN), inhibitory neurons (In; GAD1), astrocytes (Ast; AQP4, GFAP), oligodendrocytes (Oli; PLP1, MBP), microglia (Mic; CSF1R, CD74), oligodendrocyte progenitor cells (Opc; VCAN), and endothelial cells (End; FLT1). […]

UAGCAGCACAGAAAUAUUGGC (chemistry not given here) [miR-195-5p, over-expressed via AAV2-containing miR-195-5p from ABM Inc]
average size of lysosomes (area) [1]: no significant differences | top GO pathways enriched with microglial sub-cluster DEGs [2]: down-regulates innate immune system and effector responses

— patent US20240301408A1, “MICRORNA 195 COMPOSITIONS AND METHODS FOR TREATING COGNITIVE IMPAIRMENT” (UNITED STATES GOVERNMENT AS REPRESENTED BY THE DEPARTMENT …, priority 2021, published 2024)
